{"source": "patent US11214594B2", "about": "“Antimicrobial peptide having synergistic antibacterial effect with antibiotics on multidrug resistant bacteria, and use thereof” (priority 2016, dated 2022)", "key": {"[1]": {"tested_on": "MDRAB 12035", "experiment": "MIC of antibiotic during combined treatment with antimicrobial peptide", "assay_type": "cell-based, Acinetobacter baumannii", "in_short": "(§1)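 Strains in MH medium at 2×10^6 CFU/ml were mixed with peptide diluted stepwise (2:1) from its MIC, then antibiotic dilutions in MH medium were added to give the antibiotic MIC. The reversed set-up, peptide titrated against fixed antibiotic, gave the peptide MIC.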"}, "[2]": {"tested_on": "E. coli", "assay_type": "cell-based, Escherichia coli", "details": "E. coli", "in_short": "as §1"}, "[3]": {"tested_on": "MDREC 1229", "assay_type": "cell-based, Escherichia coli", "in_short": "as §1"}, "[4]": {"tested_on": "A. baumannii", "experiment": "MIC of antimicrobial peptide during combined treatment with antibiotic", "assay_type": "cell-based, Acinetobacter baumannii", "in_short": "as §1"}, "[5]": {"tested_on": "MDRAB 12035", "experiment": "MIC of antimicrobial peptide during combined treatment with antibiotic", "assay_type": "cell-based, Acinetobacter baumannii", "in_short": "as §1"}, "[6]": {"details": "peptide treatment concentration 8 μg/ml"}, "[7]": {"details": "peptide treatment concentration 16 μg/ml"}, "[8]": {"details": "peptide treatment concentration 32 μg/ml"}, "[9]": {"details": "peptide treatment concentration 64 μg/ml"}, "[10]": {"details": "with Erythromycin […] (Conc./MIC 1)"}, "[11]": {"details": "linezolid 64 μg/ml (Conc./MIC 1/8)"}, "[12]": {"details": "linezolid 512 μg/ml (Conc./MIC 1)"}, "[13]": {"details": "vancomycin 512 μg/ml (Conc./MIC 1/2)"}, "[14]": {"details": "vancomycin 1024 μg/ml (Conc./MIC 1)"}, "[15]": {"details": "erythromycin 4 μg/ml (Conc./MIC 1/8)"}, "[16]": {"details": "erythromycin 8 μg/ml (Conc./MIC 1/4)"}, "[17]": {"details": "erythromycin 16 μg/ml (Conc./MIC 1/2)"}, "[18]": {"details": "erythromycin 32 μg/ml (Conc./MIC 1)"}, "[19]": {"details": "linezolid 32 μg/ml (Conc./MIC 1/8)"}, "[20]": {"details": "linezolid 64 μg/ml (Conc./MIC 1/4)"}}, "note": "Several values for one entry are separate records, joined by “and”; a condition that tells them apart may be missing. Equal entries are not always repeated. Where two headings read alike, the source gives them in different places. Where a SMILES comes first, the peptide text is derived from it.", "data": [{"compound": "CC[C@H](C)[C@H](NC(=O)[C@H](CCCCN)NC(=O)[C@H](Cc1c[nH]c2ccccc12)NC(=O)[C@@H](N)CCCNC(=N)N)C(=O)N[C@@H](Cc1ccccc1)C(=O)N[C@@H](CCCCN)C(=O)N[C@@H](CCCCN)C(=O)N[C@H](C(=O)N1CCC[C@H]1C(=O)N[C@@H](CCCCN)C(=O)N[C@@H](Cc1ccccc1)C(=O)N[C@@H](CC(C)C)C(=O)N[C@@H](Cc1c[nH]cn1)C(=O)N[C@@H](CO)C(=O)N[C@@H](C)C(=O)N[C@@H](CCCCN)C(=O)N[C@@H](CCCCN)C(=O)N[C@@H](Cc1ccccc1)C(N)=O)[C@@H](C)CC", "note": "[PapMA-1, RWK IFK KIP KFL HSA KKF-NH2] (H-RWKIFKKIPKFLHSAKKF-NH2; N-terminus assumed)", "values": [{"measurement": "Erythromycin MIC during combined treatment with peptide", "setting": "[1]; [6]", "result": 0.5, "unit": "µg/mL"}, {"measurement": "Linezolid MIC during combined treatment with peptide", "setting": "[1]; [6]", "result": 16, "unit": "µg/mL"}, {"measurement": "Vancomycin MIC during combined treatment with peptide", "setting": "[1]; [6]", "result": 16, "unit": "µg/mL"}, {"measurement": "Erythromycin MIC during combined treatment with peptide", "setting": "[1]; [7]", "result": 0.25, "unit": "µg/mL"}, {"measurement": "Linezolid MIC during combined treatment with peptide", "setting": "[1]; [7]", "result": 8, "unit": "µg/mL"}, {"measurement": "Vancomycin MIC during combined treatment with peptide", "setting": "[1]; [7]", "result": 16, "unit": "µg/mL"}, {"measurement": "Erythromycin MIC during combined treatment with peptide", "setting": "[1]; [8]", "result": 0.125, "unit": "µg/mL"}, {"measurement": "Linezolid MIC during combined treatment with peptide", "setting": "[1]; [8]", "result": 4, "unit": "µg/mL"}, {"measurement": "Vancomycin MIC during combined treatment with peptide", "setting": "[1]; [8]", "result": 8, "unit": "µg/mL"}, {"measurement": "Erythromycin MIC during combined treatment with peptide", "setting": "[1]; [9]", "result": 0, "unit": "µg/mL"}, {"measurement": "Linezolid MIC during combined treatment with peptide", "setting": "[1]; [9]", "result": 0, "unit": "µg/mL"}, {"measurement": "Vancomycin MIC during combined treatment with peptide", "setting": "[1]; [9]", "result": 0, "unit": "µg/mL"}, {"measurement": "Peptide MIC", "setting": "[2]; [10]", "result": 0, "unit": "µg/mL"}, {"measurement": "Peptide MIC", "setting": "[2]; with Linezolid […] (Conc./MIC 1)", "result": 0, "unit": "µg/mL"}, {"measurement": "Peptide MIC", "setting": "[2]; with Vancomycin 1024 μg/ml (Conc./MIC 1)", "result": 0, "unit": "µg/mL"}, {"measurement": "Peptide MIC during treatment with antibiotic", "setting": "[3]; erythromycin 32 μg/ml (Conc./MIC 1/8)", "result": 2, "unit": "µg/mL"}, {"measurement": "Peptide MIC during treatment with antibiotic", "setting": "[3]; erythromycin 64 μg/ml (Conc./MIC 1/4)", "result": "1 µg/mL and 2 µg/mL"}, {"measurement": "Peptide MIC during treatment with antibiotic", "setting": "[3]; erythromycin […] (Conc./MIC 1)", "result": 0, "unit": "µg/mL"}, {"measurement": "Peptide MIC during treatment with antibiotic", "setting": "[3]; erythromycin […] (Conc./MIC 1/2)", "result": 1, "unit": "µg/mL"}, {"measurement": "Peptide MIC during treatment with antibiotic", "setting": "[3]; [11]", "result": "2 µg/mL and 4 µg/mL"}, {"measurement": "Peptide MIC during treatment with antibiotic", "setting": "[3]; [12]", "result": 0, "unit": "µg/mL"}, {"measurement": "Peptide MIC during treatment with antibiotic", "setting": "[3]; linezolid […] (Conc./MIC 1/2)", "result": 1, "unit": "µg/mL"}, {"measurement": "Peptide MIC during treatment with antibiotic", "setting": "[3]; linezolid […] (Conc./MIC 1/4)", "result": 2, "unit": "µg/mL"}, {"measurement": "Peptide MIC during treatment with antibiotic", "setting": "[3]; [13]", "result": 2, "unit": "µg/mL"}, {"measurement": "Peptide MIC during treatment with antibiotic", "setting": "[3]; [14]", "result": 1, "unit": "µg/mL"}, {"measurement": "Peptide MIC during treatment with antibiotic", "setting": "[3]; vancomycin […] (Conc./MIC 1/4)", "result": 4, "unit": "µg/mL"}, {"measurement": "Peptide MIC during treatment with antibiotic", "setting": "[3]; vancomycin […] (Conc./MIC 1/8)", "result": 8, "unit": "µg/mL"}, {"measurement": "Peptide MIC", "setting": "[3]; [10]", "result": 0, "unit": "µg/mL"}, {"measurement": "Peptide MIC", "setting": "[3]; with Linezolid 512 μg/ml (Conc./MIC 1)", "result": 0, "unit": "µg/mL"}, {"measurement": "Peptide MIC during treatment with antibiotic", "setting": "[4]; [15]", "result": 4, "unit": "µg/mL"}, {"measurement": "Peptide MIC during treatment with erythromycin", "setting": "[4]; [15]", "result": 4, "unit": "µg/mL"}, {"measurement": "Peptide MIC during treatment with antibiotic", "setting": "[4]; [16]", "result": 4, "unit": "µg/mL"}, {"measurement": "Peptide MIC during treatment with erythromycin", "setting": "[4]; [16]", "result": 4, "unit": "µg/mL"}, {"measurement": "Peptide MIC during treatment with antibiotic", "setting": "[4]; [17]", "result": 2, "unit": "µg/mL"}, {"measurement": "Peptide MIC during treatment with erythromycin", "setting": "[4]; [17]", "result": 2, "unit": "µg/mL"}, {"measurement": "Peptide MIC during treatment with antibiotic", "setting": "[4]; [18]", "result": 0, "unit": "µg/mL"}, {"measurement": "Peptide MIC during treatment with erythromycin", "setting": "[4]; [18]", "result": 0, "unit": "µg/mL"}, {"measurement": "Peptide MIC during treatment with antibiotic", "setting": "[4]; [19]", "result": 4, "unit": "µg/mL"}, {"measurement": "Peptide MIC during treatment with linezolid", "setting": "[4]; [19]", "result": 4, "unit": "µg/mL"}, {"measurement": "Peptide MIC during treatment with antibiotic", "setting": "[4]; [20]", "result": 4, "unit": "µg/mL"}, {"measurement": "Peptide MIC during treatment with linezolid", "setting": "[4]; [20]", "result": 4, "unit": "µg/mL"}, {"measurement": "Peptide MIC during treatment with antibiotic", "setting": "[4]; linezolid […] (Conc./MIC 1)", "result": 0, "unit": "µg/mL"}, {"measurement": "Peptide MIC during treatment with linezolid", "setting": "[4]; linezolid […] (Conc./MIC 1)", "result": 0, "unit": "µg/mL"}, {"measurement": "Peptide MIC during treatment with antibiotic", "setting": "[4]; linezolid […] (Conc./MIC 1/2)", "result": 0.5, "unit": "µg/mL"}, {"measurement": "Peptide MIC during treatment with linezolid", "setting": "[4]; linezolid […] (Conc./MIC 1/2)", "result": 0.5, "unit": "µg/mL"}, {"measurement": "Peptide MIC during treatment with antibiotic", "setting": "[4]; [13]", "result": 0.25, "unit": "µg/mL"}, {"measurement": "Peptide MIC during treatment with vancomycin", "setting": "[4]; [13]", "result": 0.25, "unit": "µg/mL"}, {"measurement": "Peptide MIC during treatment with antibiotic", "setting": "[4]; [14]", "result": 0, "unit": "µg/mL"}, {"measurement": "Peptide MIC during treatment with vancomycin", "setting": "[4]; [14]", "result": 0, "unit": "µg/mL"}, {"measurement": "Peptide MIC during treatment with antibiotic", "setting": "[4]; vancomycin […] (Conc./MIC 1/4)", "result": 0.5, "unit": "µg/mL"}, {"measurement": "Peptide MIC during treatment with vancomycin", "setting": "[4]; vancomycin […] (Conc./MIC 1/4)", "result": 0.5, "unit": "µg/mL"}, {"measurement": "Peptide MIC during treatment with antibiotic", "setting": "[4]; vancomycin […] (Conc./MIC 1/8)", "result": 4, "unit": "µg/mL"}, {"measurement": "Peptide MIC during treatment with vancomycin", "setting": "[4]; vancomycin […] (Conc./MIC 1/8)", "result": 4, "unit": "µg/mL"}, {"measurement": "Peptide MIC during treatment with erythromycin", "setting": "[5]; [15]", "result": 4, "unit": "µg/mL"}, {"measurement": "MIC of peptide in combination as fraction of the MIC of the peptide alone", "setting": "[5]; erythromycin 8 μg/ml", "result": "1/16"}, {"measurement": "MIC value of peptide during combined treatment with erythromycin", "setting": "[5]; erythromycin 8 μg/ml (1/4 of its MIC)", "result": 4, "unit": "µg/mL"}, {"measurement": "Peptide MIC during treatment with erythromycin", "setting": "[5]; [16]", "result": 4, "unit": "µg/mL"}, {"measurement": "Peptide MIC during treatment with erythromycin", "setting": "[5]; [17]", "result": 4, "unit": "µg/mL"}, {"measurement": "Peptide MIC during treatment with erythromycin", "setting": "[5]; [18]", "result": 0, "unit": "µg/mL"}, {"measurement": "Peptide MIC during treatment with linezolid", "setting": "[5]; [11]", "result": 4, "unit": "µg/mL"}, {"measurement": "Peptide MIC during treatment with linezolid", "setting": "[5]; [12]", "result": 0, "unit": "µg/mL"}, {"measurement": "Peptide MIC during treatment with linezolid", "setting": "[5]; linezolid […] (Conc./MIC 1/2)", "result": 1, "unit": "µg/mL"}, {"measurement": "Peptide MIC during treatment with linezolid", "setting": "[5]; linezolid […] (Conc./MIC 1/4)", "result": 4, "unit": "µg/mL"}, {"measurement": "Peptide MIC during treatment with vancomycin", "setting": "[5]; [13]", "result": 2, "unit": "µg/mL"}, {"measurement": "Peptide MIC during treatment with vancomycin", "setting": "[5]; [14]", "result": 1, "unit": "µg/mL"}, {"measurement": "Peptide MIC during treatment with vancomycin", "setting": "[5]; vancomycin […] (Conc./MIC 1/4)", "result": 4, "unit": "µg/mL"}, {"measurement": "Peptide MIC during treatment with vancomycin", "setting": "[5]; vancomycin […] (Conc./MIC 1/8)", "result": 4, "unit": "µg/mL"}]}]}
